Source: PubChem BioAssay AID1963832 (Molecular Pharmacology Branch, DTP, NCI, 2024)
Values joined by “and” are separate entries in the source; they are usually repeats but may differ in a detail not shown here. Equal values may be shown once.

Test system: 885724-159-R-J1-PDC complex spheroid viability
Experiment: Anticancer human tumor 885724-159-R-J1-PDC patient-derived pancreatic adenocarcinoma cell line growth inhibition [POLQ]
Settings: for viability, T/C: stronger effect = lower value
Procedure: Multicellular complex tumor spheroid response to Polymerase (POL) inhibitors (novobiocin, ART-558, RP6685) in combination with a variety of drugs and investigational agents in selected tumor cell lines
The POL inhibitors (novobiocin, ART-558, and RP6685) were evaluated both individually and in combination with standard of care and investigational anticancer small molecules within a complex spheroid model of solid tumors. . Complex spheroids include a stromal component modeled by human endothelial cells (HUVEC) and fibroblasts modeled by human mesenchymal stem cells (MSCs). The concentration ranges selected for each drug and investigational agent were based upon clinically achievable concentrations if the clinical Cmax of the agent was known.
Compounds. The drugs and investigational agents: novobiocin (NSC847541), ART-558 (NSC835418), RP-6685 (NSC848927), peposertib (NSC802822), ceralasertib (NSC780249), elimusertib (NSC800525), camonsertib (NSC841442), AZD-1390 (NSC803789), olaparib (NSC753686), talazoparib (NSC767125), rucaparib (NSC756644), sotorasib (NSC818433), MRTX-1133 (NSC836407), SN-38 (NSC673596), topotecan (NSC609699), epotoside (NSC141540), doxorubicin (NSC123127), gemcitabine (NSC613327), 5-fluorouracil (NSC19893), paclitaxel (NSC125973), vemurafenib (NSC761431), MSA-2 (NSC828583), SN-011 (NSC837082), adavosertib (NSC754352), prexasertib (NSC758257), carboplatin (NSC241240) and oxaliplatin (NSC266046), were obtained from the National Cancer Institute (NCI) Developmental Therapeutics Program Chemical Repository (21). The FDA-approved anticancer drug set is available from the Developmental Therapeutics Program at https://dtp.cancer.gov/organization/dscb/obtaining/. […] The stock solutions were prepared in dimethyl sulfoxide (DMSO, Sigma-Aldrich, St. Louis, MO, cat. D2650), except for the platinum compounds which were prepared in saline (Quality Biological, Gaithersburg, MD, cat. 114-055-101), at 800-fold the tested concentration and stored at -70 degrees C prior to their use. All drugs and investigational agents were tested over a range starting from a high concentration at or near the clinical Cmax and decreasing in half-log increments. If the clinical Cmax for an agent had not been determined, the highest concentration tested was 10 microM, except for SN-38, which was tested at a high concentration of 1 microM.
Cell Culture. All cells were maintained in an incubator at 37 degrees C and 5% CO2 with 95% humidity. The PDC lines were cultured according to standard operating procedures established by the NCI PDMR (https://pdmr.cancer.gov). Table 3 of the manuscript, lists the cell lines along with the number of the three cell types plated to form the mct-spheroids and media for tumor cell growth. After thawing, all PDC lines, except 997537-175-T-J1-PDC and 415267-285-R-J2-PDC, were cultured in Matrigel-coated flasks prepared with a working solution of 1X Ham's F-12 nutrient mix, without supplementation (Thermo Fisher Scientific, cat. 11765054), 100 U/mL penicillin-streptomycin (Thermo Fisher Scientific, cat. 15140122), and 2.5% Matrigel (Corning Inc., Corning, NY, cat. 354248) for the first three passages. The two PDC lines 997537-175-T-J1-PDC and 415267-285-R-J2-PDC were cultured on uncoated flasks. The 857933-349-R-J2-PDC line was cultured in 6C/Colon 1B media containing advanced DMEM/F-12 (Thermo Fisher Scientific, cat. 12634028), 10 mM HEPES (Thermo Fisher Scientific, cat. 15630080), 1X GlutaMAX supplement (Thermo Fisher Scientific, cat. 35050061), 0.1 mg/mL primocin (InvivoGen, San Diego, CA, cat. ant-pm-2), 10% defined fetal bovine serum, heat inactivated (HyClone Laboratories Inc., Logan, UT, cat. SH30070.03HI), 50% L-WRN conditioned media (ATCC, cat. CRL-3276), 1.25 mM N-Acetyl-L-cysteine (Sigma-Aldrich, cat. A9165), 10 mM nicotinamide (Sigma-Aldrich, cat. N0636), 1X B-27 supplement (Thermo Fisher Scientific, cat. 17504044), 1X N-2 supplement (Thermo Fisher Scientific, cat. […]
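Further: spheroids exposed to compounds for 7 days.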

COc1cc(C2c3cc4c(cc3C(OC3OC5COC(C)OC5C(O)C3O)C3COC(=O)C23)OCO4)cc(OC)c1O (stereo not drawn)
viability, T/C (compound 0.0316 µM): 94.8% and 95.3% and 106% | viability, T/C (compound 0.1 µM): 86.5% and 92.2% and 82.3% | viability, T/C (compound 0.316 µM): 75.8% and 85.9% and 68.5% | viability, T/C (compound 1 µM): 64.5% (2×) and 73% | viability, T/C (compound 3.16 µM): 58.4% and 57.7% and 55.9% | viability, T/C (compound 10 µM): 48% and 53.2% and 42.6% | IC50 (curve of compound): 8.15 µM and > 10 µM and 4.59 µM

COc1cccc2c1C(=O)c1c(O)c3c(c(O)c1C2=O)CC(O)(C(=O)CO)CC3OC1CC(N)C(O)C(C)O1 (stereo not drawn)
viability, T/C (compound 0.0316 µM): 72.9% and 74.1% and 66.6% | viability, T/C (compound 0.1 µM): 54.6% and 56% and 97.5% | viability, T/C (compound 0.316 µM): 30.8% and 36.2% and 31.9% | viability, T/C (compound 1 µM): 11.2% and 13.3% and 8.99% | viability, T/C (compound 3.16 µM): 5.6% and 5.49% and 5.32% | viability, T/C (compound 10 µM): 7.5% and 6.14% and 6.82% | IC50 (curve of compound): 0.128 µM and 0.146 µM and 0.209 µM

O=C(Nc1ccc(O)c(NS(=O)(=O)c2ccc(F)cc2)c1)c1ccc(-c2ccccc2)cc1 + COC1C(OC(N)=O)C(O)C(Oc2ccc3c(O)c(NC(=O)c4ccc(O)c(CC=C(C)C)c4)c(=O)oc3c2C)OC1(C)C
IC50 (curve of first compound, second compound 0.0316 µM): > 10 µM | IC50 (curve of first compound, second compound 0.1 µM): > 10 µM | IC50 (curve of first compound, second compound 0.316 µM): > 10 µM | IC50 (curve of first compound, second compound 1 µM): > 10 µM | IC50 (curve of first compound, second compound 3.16 µM): > 10 µM | IC50 (curve of first compound, second compound 10 µM): > 10 µM | viability, T/C (second compound 0.0316 µM, first compound 0.0316 µM): 90.9% | viability, T/C (second compound 0.0316 µM, first compound 0.1 µM): 91.9% | viability, T/C (second compound 0.0316 µM, first compound 0.316 µM): 92.7% | viability, T/C (second compound 0.0316 µM, first compound 1 µM): 102% | viability, T/C (second compound 0.0316 µM, first compound 3.16 µM): 98.6% | viability, T/C (second compound 0.0316 µM, first compound 10 µM): 72.9% | viability, T/C (second compound 0.1 µM, first compound 0.0316 µM): 104% | viability, T/C (second compound 0.1 µM, first compound 0.1 µM): 96.7% | viability, T/C (second compound 0.1 µM, first compound 0.316 µM): 98.1% | viability, T/C (second compound 0.1 µM, first compound 1 µM): 104% | viability, T/C (second compound 0.1 µM, first compound 3.16 µM): 109% | viability, T/C (second compound 0.1 µM, first compound 10 µM): 72.7% | viability, T/C (second compound 0.316 µM, first compound 0.0316 µM): 105% | viability, T/C (second compound 0.316 µM, first compound 0.1 µM): 95.6% | viability, T/C (second compound 0.316 µM, first compound 0.316 µM): 90% | viability, T/C (second compound 0.316 µM, first compound 1 µM): 107% | viability, T/C (second compound 0.316 µM, first compound 3.16 µM): 106% | viability, T/C (second compound 0.316 µM, first compound 10 µM): 87.3% | viability, T/C (second compound 1 µM, first compound 0.0316 µM): 107% | viability, T/C (second compound 1 µM, first compound 0.1 µM): 96% | viability, T/C (second compound 1 µM, first compound 0.316 µM): 95% | viability, T/C (second compound 1 µM, first compound 1 µM): 100% | viability, T/C (second compound 1 µM, first compound 3.16 µM): 102% | viability, T/C (second compound 1 µM, first compound 10 µM): 71.4% | viability, T/C (second compound 3.16 µM, first compound 0.0316 µM): 96.6% | viability, T/C (second compound 3.16 µM, first compound 0.1 µM): 92% | viability, T/C (second compound 3.16 µM, first compound 0.316 µM): 95.1% | viability, T/C (second compound 3.16 µM, first compound 1 µM): 94.1% | viability, T/C (second compound 3.16 µM, first compound 3.16 µM): 101% | viability, T/C (second compound 3.16 µM, first compound 10 µM): 84.1% | viability, T/C (second compound 10 µM, first compound 0.0316 µM): 94.8% | viability, T/C (second compound 10 µM, first compound 0.1 µM): 97.3% | viability, T/C (second compound 10 µM, first compound 0.316 µM): 94.6% | viability, T/C (second compound 10 µM, first compound 1 µM): 97.1% | viability, T/C (second compound 10 µM, first compound 3.16 µM): 108% | viability, T/C (second compound 10 µM, first compound 10 µM): 75.8%

Nc1ccn(C2OC(CO)C(O)C2(F)F)c(=O)n1 (stereo not drawn)
viability, T/C (compound 0.0316 µM): 62.8% and 66.8% and 60.1% | viability, T/C (compound 0.1 µM): 51.6% and 57% and 53.9% | viability, T/C (compound 0.316 µM): 50.6% and 51% and 51.5% | viability, T/C (compound 1 µM): 51.7% and 53% (2×) | viability, T/C (compound 3.16 µM): 51.6% and 53.4% and 54.6% | viability, T/C (compound 10 µM): 46% and 42.3% and 39.7% | IC50 (curve of compound): 0.56 µM and 1.16 µM and 4.38 µM
